US10550105B2 (Ribon Therapeutics Inc., priority 2018, dated 2020)
Values belong to the compound of their own block, whether it stands above or below them.

What was measured:
[1] = tested on: NCI-H1373 lung cancer xenograft; assay: Inhibition of tumor growth by oral dosing, human NCI-H1373 lung cancer xenograft; format: in vivo; details: NCI-H1373 xenograft in SCID mice
Description: Example H: Inhibition of Tumor Growth by Oral Dosing with a PARP7 Inhibitor
The effect of Compound 561 on tumor growth was studied in a human NCI-H1373 lung cancer xenograft and a murine CT26 colon cancer syngeneic model.
For the NCI-H1373 study, SCID mice were inoculated subcutaneously in the right flank with NCI-H1373 cells for tumor development. After 5 days of tumor growth, mice with 89-148 mm^3 tumors were randomized into treatment groups with mean tumor volumes of 121 mm^3. The treatments were started from the next day post randomization (defined randomization day as day 0) and were treated with vehicle (50% Labrasol) or Compound 561 (62.5, 125, 250, and 500 mg/kg) once a day for 28 days by oral gavage. Tumor volumes were determined by manual calipers every 2-3 days. Mean tumor volume and SEM are plotted. QD: once a day; PO: per oral administration. Statistical significance is calculated using two-way ANOVA followed by Bonferroni post-tests in which the treatment groups were compared to vehicle control (**** P<0.0001).

IA-LM = assay: Growth inhibition of cancer cell lines, 144 hours (CellTiter-Glo); format: cell-based; details: large cell lung carcinoma
Experimental: (§1) Example C: Inhibition of Cancer Cell Growth by Treatment with PARP7 Inhibitors
(§2) Table A-2 and Table A-3 (below) represents the concentration that causes 50% growth inhibition (GI50) in a panel of cancer cell lines with Compound 18B and Compound 561. Cells were plated into 384-well plates at a pre-specified density in fetal bovine serum-containing media. Cells were treated with compound or vehicle (DMSO) 24 hrs later, and a day zero plate was collected for analysis. Test compound plates were incubated continuously for 72 hrs (Table A-2) or 144 hours (Table A-3) cell growth was assessed using a luminescent cell viability assay (CellTiter-Glo, Promega). The GI50was determined by correcting for the cell count at time zero (time of treatment) and plotting data as percent growth relative to vehicle-treated cells.

HCC1954 = assay: as above; format: cell-based; details: Homo sapiens, ductal breast carcinoma
Experimental: as §1, §2

NUGC-3 = assay: as above; format: cell-based; details: Homo sapiens, gastric adenocarcinoma
Experimental: as §1, §2

NCI-H647 = assay: as above; format: cell-based; details: Homo sapiens, lung adenosquamous carcinoma
Experimental: as §1, §2

NCI-H1963 = assay: as above; format: cell-based; details: Homo sapiens, small cell lung carcinoma
Experimental: as §1, §2

SK-MEL-2 = assay: as above; format: cell-based; details: Homo sapiens, malignant melanoma
Experimental: as §1, §2

MSTO-211H = assay: as above; format: cell-based; details: Homo sapiens, biphasic mesothelioma
Experimental: as §1, §2

NCI-H1930 = assay: as above; format: cell-based; details: Homo sapiens, small cell lung carcinoma
Experimental: as §1, §2

NCI-H2444 = assay: as above; format: cell-based; details: Homo sapiens, non-small cell lung carcinoma
Experimental: as §1, §2

SW900 = assay: as above; format: cell-based; details: Homo sapiens, squamous cell lung carcinoma
Experimental: as §1, §2

T84 = assay: as above; format: cell-based; details: Homo sapiens, colon adenocarcinoma
Experimental: as §1, §2

COR-L105 = assay: as above; format: cell-based; details: Homo sapiens, lung adenocarcinoma
Experimental: as §1, §2

TYK-nu = assay: as above; format: cell-based; details: high grade ovarian serious adenocarcinoma
Experimental: as §1, §2

NCI-H1437 = assay: as above; format: cell-based; details: Homo sapiens, lung adenocarcinoma
Experimental: as §1, §2

NCI-H1944 = assay: as above; format: cell-based; details: Homo sapiens, lung adenocarcinoma
Experimental: as §1, §2

SCC-25 = assay: as above; format: cell-based; details: Homo sapiens, tongue squamous cell carcinoma
Experimental: as §1, §2

[2] = tested on: human NCI-H1373 lung cancer xenograft; assay: Tumor growth in human NCI-H1373 lung cancer xenograft (FIG. 7A); format: in vivo; details: once daily administration
PARP7 [3] = molecular target: T1, PARP7 (Homo sapiens (Human), UniProt Q7Z3E1); assay: Inhibition of PARP7 (Table A-1); format: biochemical; details: comparison of separated isomers, see Table A-1
CT26 cells = assay: Proliferation of CT26 cells in the presence of PARP7 inhibitors (CellTiter-Glo, 4 days); format: cell-based, mouse; details: CellTiter-Glo (FIG. 5)
Experimental: Example F: Proliferation of CT26 cells in the presence of PARP7 inhibitors
CT26 cells were plated in a 384-well plate and allowed to adhere for several hours before being treated with Compound 18B. Cells were incubated with compound for 4 days prior to processing with CellTiter-Glo reagent (Promega). Luminescence was measured with a Perkin Elmer Envision and percent inhibition was calculated using the vehicle (DMSO) average as 0% inhibition. Non-linear regression analysis was performed using a 4 parameter (variable slope) fit in GraphPad Prism.

PARP7 [4] = molecular target: T1, PARP7; assay: Enzymatic assay for inhibition of PARP7: TR-FRET displacement of biotinylated Probe A from the TIPARP active site; format: binding; details: Table A-1
Method in brief: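 Compound dose-response series were incubated with TIPARP and biotinylated Probe A, with a final 30 min step at 25 °C. TR-FRET was read at 320 nm excitation, 615/665 nm emission and 90 μs delay, using the 665/615 ratio to measure complex formation. % inhibition was fitted with a floating or fixed (1) Hill coefficient.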

interferon-beta (IFN-β) [5] = assay: Induction of interferon-beta levels in RAW264.7 macrophages in the presence of STING agonist DMXAA (FIG. 3); format: cell-based; details: RAW264.7 mouse macrophages
interferon-beta (IFN-β) [6] = assay: Induction of interferon-beta levels in CT26 cells in the presence of STING agonist DMXAA (FIG. 3); format: cell-based; details: CT26 mouse colon cancer cells

T1 sequence (Q7Z3E1 whole entry): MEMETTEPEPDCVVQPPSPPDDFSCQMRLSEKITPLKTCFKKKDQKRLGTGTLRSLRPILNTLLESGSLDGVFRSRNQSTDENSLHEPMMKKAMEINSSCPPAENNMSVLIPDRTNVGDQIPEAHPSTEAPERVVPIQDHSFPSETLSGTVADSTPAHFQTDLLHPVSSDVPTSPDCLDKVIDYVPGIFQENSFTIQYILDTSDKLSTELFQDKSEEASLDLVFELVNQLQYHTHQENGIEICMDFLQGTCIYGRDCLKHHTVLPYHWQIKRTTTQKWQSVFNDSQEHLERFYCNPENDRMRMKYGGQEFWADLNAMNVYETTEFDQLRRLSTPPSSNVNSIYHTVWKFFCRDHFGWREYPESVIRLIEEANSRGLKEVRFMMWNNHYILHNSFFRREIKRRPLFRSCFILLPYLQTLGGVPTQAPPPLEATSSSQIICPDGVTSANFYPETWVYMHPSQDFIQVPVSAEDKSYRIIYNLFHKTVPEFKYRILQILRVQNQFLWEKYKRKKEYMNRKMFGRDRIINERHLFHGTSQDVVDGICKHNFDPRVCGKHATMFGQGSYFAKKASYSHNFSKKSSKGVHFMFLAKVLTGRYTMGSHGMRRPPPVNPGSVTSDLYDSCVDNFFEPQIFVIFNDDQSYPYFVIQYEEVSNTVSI

SMILES: C[C@@H](COCCC(=O)N1CCN(c2ncc(C(F)(F)F)cn2)CC1)Nc1cn[nH]c(=O)c1C(F)(F)F [Example 561, 5-[[(2S)-1-(3-oxo-3-[4-[5-(trifluoromethyl)pyrimidin-2-yl]piperazin-1-yl]propoxy)propan-2-yl]amino]-4-(trifluoromethyl)-2,3-dihydropyridazin-3-one]
tumor growth ([1]; 62.5, 125, 250 and 500 mg/kg once a day for 28 days by oral gavage, vs vehicle, P<0.0001 (FIG. 7A)): significantly reduces tumor growth | tumor regression ([1]; 62.5 to 500 mg/kg once a day for 28 days, all dose levels): complete tumor regression | GI50 (IA-LM): < 100 nM | GI50 (HCC1954): ≥ 1000 nM | GI50 (NUGC-3): ≥ 1000 nM | GI50 (NCI-H647): < 100 nM | GI50 (NCI-H1963): ≥ 1000 nM | GI50 (SK-MEL-2): ≥ 1000 nM | GI50 (MSTO-211H): ≥ 1000 nM | GI50 (NCI-H1930): ≥ 1000 nM | GI50 (NCI-H2444): ≥ 1000 nM | GI50 (SW900): 100 to 1000 nM | GI50 (T84): ≥ 1000 nM | GI50 (COR-L105): 100 to 1000 nM | GI50 (TYK-nu): < 100 nM | GI50 (NCI-H1437): ≥ 1000 nM | GI50 (NCI-H1944): ≥ 1000 nM | GI50 (SCC-25): < 100 nM | tumor growth [2]: significantly reduces tumor growth

relative potency of the enantiomers / diastereomers (PARP7 [3]): more potent enantiomer | IC50 (PARP7 [4]): < 100 nM
SMILES: N#Cc1ccc(N2CCN(C(=O)c3cccc(OC[C@@H]4c5ccccc5CN4c4cn[nH]c(=O)c4C(F)(F)F)c3)CC2)nc1 (single isomer, unassigned) [Example 18 Isomer B]
proliferation in CT26 cells in vitro (CT26 cells): do not inhibit proliferation | interferon-beta (IFN-β) levels (interferon-beta (IFN-β) [5]): induction | interferon-beta (IFN-β) levels (interferon-beta (IFN-β) [6]): induction
